ChEMBL document CHEMBL3885881, “DrugMatrix”

Species: Rattus norvegicus
Assay: DrugMatrix - Regimen: Daily Repeat
Type: toxicity, organism-based, Sprague-Dawley
Design: regimen Daily Repeat, gender Male, age 6-8 weeks
Conditions: in vivo, po, route oral GAVAGE, vehicle .5 % CMC; for ABSOLUTE BASOPHIL / ABSOLUTE EOSINOPHIL / ABSOLUTE LYMPHOCYTE / ABSOLUTE MONOCYTE / ABSOLUTE SEGMENTED NEUTROPHIL / BASOPHIL / EOSINOPHIL / ERYTHROCYTE COUNT / HEMATOCRIT / HEMOGLOBIN / LEUKOCYTE COUNT / LYMPHOCYTE / MEAN CORPUSCULAR HEMOGLOBIN / MEAN CORPUSCULAR HEMOGLOBIN CONCENTRATION / MEAN CORPUSCULAR VOLUME / MONOCYTE / NEUTROPHIL / NUCLEATED RED BLOOD CELLS / PLATELET COUNT: tissue Blood; for ALANINE AMINOTRANSFERASE / ALBUMIN / ALKALINE PHOSPHATASE / ASPARTATE AMINOTRANSFERASE / BLOOD UREA NITROGEN / CARBON DIOXIDE / CHLORIDE / CHOLESTEROL / CREATINE PHOSPHOKINASE / CREATININE / GLUCOSE / LACTATE DEHYDROGENASE / LIPASE / PHOSPHORUS / POTASSIUM / SODIUM / TOTAL BILIRUBIN / TOTAL PROTEIN / URIC ACID: tissue Plasma
[1] = 25 mg/kg, 72 h, dose level Low, time 3 day
[2] = 25 mg/kg, 120 h, dose level Low, time 5 day
[3] = 300 mg/kg, 72 h, dose level High, time 3 day
[4] = 300 mg/kg, 120 h, dose level High, time 5 day

Structure (SMILES): CC(=O)S[C@@H]1CC2=CC(=O)CC[C@]2(C)[C@H]2CC[C@@]3(C)[C@@H](CC[C@@]34CCC(=O)O4)[C@H]12 [SPIRONOLACTONE]
- ABSOLUTE BASOPHIL [1]: 0 CELLS/uL
- ABSOLUTE EOSINOPHIL [1]: 0 CELLS/uL
- ABSOLUTE LYMPHOCYTE [1]: 11038 CELLS/uL
- ABSOLUTE MONOCYTE [1]: 168 CELLS/uL
- ABSOLUTE SEGMENTED NEUTROPHIL [1]: 694 CELLS/uL
- BASOPHIL [1]: 0%
- EOSINOPHIL [1]: 0%
- ERYTHROCYTE COUNT [1]: 5.44 x10E6/uL
- HEMATOCRIT [1]: 34.63%
- HEMOGLOBIN [1]: 13.87 G/DL
- LEUKOCYTE COUNT [1]: 11.9 x10E3/uL
- LYMPHOCYTE [1]: 92.67%
- MEAN CORPUSCULAR HEMOGLOBIN [1]: 25.53 pg
- MEAN CORPUSCULAR HEMOGLOBIN CONCENTRATION [1]: 40.03 G/DL
- MEAN CORPUSCULAR VOLUME [1]: 63.7 fL
- MONOCYTE [1]: 1.33%
- NEUTROPHIL [1]: 6%
- NUCLEATED RED BLOOD CELLS [1]: 0.67 /100WBC
- PLATELET COUNT [1]: 1277 x10E3/uL
- ALANINE AMINOTRANSFERASE [1]: 45.67 u/L
- ALBUMIN [1]: 4.3 G/DL
- ALKALINE PHOSPHATASE [1]: 295 u/L
- ASPARTATE AMINOTRANSFERASE [1]: 77.33 u/L
- BLOOD UREA NITROGEN [1]: 15.33 mg/dL
- CARBON DIOXIDE [1]: 28 mmol/L
- CHLORIDE [1]: 101.33 MEQ/L
- CHOLESTEROL [1]: 76.33 mg/dL
- CREATINE PHOSPHOKINASE [1]: 188.33 u/L
- CREATININE [1]: 0.21 mg/dL
- GLUCOSE [1]: 169.33 mg/dL
- LACTATE DEHYDROGENASE [1]: 202.67 u/L
- LIPASE [1]: 9.67 u/L
- PHOSPHORUS [1]: 12.5 mg/dL
- POTASSIUM [1]: 6.74 MEQ/L
- SODIUM [1]: 146.03 MEQ/L
- TOTAL BILIRUBIN [1]: 0.2 mg/dL
- TOTAL PROTEIN [1]: 5.83 G/DL
- URIC ACID [1]: 1.8 mg/dL
- ABSOLUTE BASOPHIL [2]: 0 CELLS/uL
- ABSOLUTE EOSINOPHIL [2]: 0 CELLS/uL
- ABSOLUTE LYMPHOCYTE [2]: 13033 CELLS/uL
- ABSOLUTE MONOCYTE [2]: 85.33 CELLS/uL
- ABSOLUTE SEGMENTED NEUTROPHIL [2]: 1115 CELLS/uL
- BASOPHIL [2]: 0%
- EOSINOPHIL [2]: 0%
- ERYTHROCYTE COUNT [2]: 5.6 x10E6/uL
- HEMATOCRIT [2]: 34.4%
- HEMOGLOBIN [2]: 13.67 G/DL
- LEUKOCYTE COUNT [2]: 14.23 x10E3/uL
- LYMPHOCYTE [2]: 91.33%
- MEAN CORPUSCULAR HEMOGLOBIN [2]: 24.47 pg
- MEAN CORPUSCULAR HEMOGLOBIN CONCENTRATION [2]: 39.73 G/DL
- MEAN CORPUSCULAR VOLUME [2]: 61.5 fL
- MONOCYTE [2]: 0.67%
- NEUTROPHIL [2]: 8%
- NUCLEATED RED BLOOD CELLS [2]: 0 /100WBC
- PLATELET COUNT [2]: 1372 x10E3/uL
- ALANINE AMINOTRANSFERASE [2]: 48.67 u/L
- ALBUMIN [2]: 4.3 G/DL
- ALKALINE PHOSPHATASE [2]: 354.67 u/L
- ASPARTATE AMINOTRANSFERASE [2]: 81 u/L
- BLOOD UREA NITROGEN [2]: 19 mg/dL
- CARBON DIOXIDE [2]: 25.67 mmol/L
- CHLORIDE [2]: 103.33 MEQ/L
- CHOLESTEROL [2]: 60.33 mg/dL
- CREATINE PHOSPHOKINASE [2]: 259.33 u/L
- CREATININE [2]: 0.2 mg/dL
- GLUCOSE [2]: 164.33 mg/dL
- LACTATE DEHYDROGENASE [2]: 139 u/L
- LIPASE [2]: 9.67 u/L
- PHOSPHORUS [2]: 12.23 mg/dL
- POTASSIUM [2]: 6.24 MEQ/L
- SODIUM [2]: 148.03 MEQ/L
- TOTAL BILIRUBIN [2]: 0.23 mg/dL
- TOTAL PROTEIN [2]: 6.27 G/DL
- URIC ACID [2]: 1.93 mg/dL
- ABSOLUTE BASOPHIL [3]: 0 CELLS/uL
- ABSOLUTE EOSINOPHIL [3]: 0 CELLS/uL
- ABSOLUTE LYMPHOCYTE [3]: 10747 CELLS/uL
- ABSOLUTE MONOCYTE [3]: 38 CELLS/uL
- ABSOLUTE SEGMENTED NEUTROPHIL [3]: 481.67 CELLS/uL
- BASOPHIL [3]: 0%
- EOSINOPHIL [3]: 0%
- ERYTHROCYTE COUNT [3]: 5.83 x10E6/uL
- HEMATOCRIT [3]: 37.33%
- HEMOGLOBIN [3]: 14.97 G/DL
- LEUKOCYTE COUNT [3]: 11.27 x10E3/uL
- LYMPHOCYTE [3]: 95.33%
- MEAN CORPUSCULAR HEMOGLOBIN [3]: 25.67 pg
- MEAN CORPUSCULAR HEMOGLOBIN CONCENTRATION [3]: 40.07 G/DL
- MEAN CORPUSCULAR VOLUME [3]: 64.03 fL
- MONOCYTE [3]: 0.33%
- NEUTROPHIL [3]: 4.33%
- NUCLEATED RED BLOOD CELLS [3]: 0 /100WBC
- PLATELET COUNT [3]: 1193 x10E3/uL
- ALANINE AMINOTRANSFERASE [3]: 95 u/L
- ALBUMIN [3]: 4.27 G/DL
- ALKALINE PHOSPHATASE [3]: 425.67 u/L
- ASPARTATE AMINOTRANSFERASE [3]: 757 u/L
- BLOOD UREA NITROGEN [3]: 16.67 mg/dL
- CARBON DIOXIDE [3]: 22.67 mmol/L
- CHLORIDE [3]: 101.33 MEQ/L
- CHOLESTEROL [3]: 65.67 mg/dL
- CREATINE PHOSPHOKINASE [3]: 5158.67 u/L
- CREATININE [3]: 0.2 mg/dL
- GLUCOSE [3]: 152.67 mg/dL
- LACTATE DEHYDROGENASE [3]: 2756 u/L
- LIPASE [3]: 11 u/L
- PHOSPHORUS [3]: 12.67 mg/dL
- POTASSIUM [3]: 9.65 MEQ/L
- SODIUM [3]: 142.53 MEQ/L
- TOTAL BILIRUBIN [3]: 0.3 mg/dL
- TOTAL PROTEIN [3]: 6.07 G/DL
- URIC ACID [3]: 3.73 mg/dL
- ABSOLUTE BASOPHIL [4]: 0 CELLS/uL
- ABSOLUTE EOSINOPHIL [4]: 55.67 CELLS/uL
- ABSOLUTE LYMPHOCYTE [4]: 15788 CELLS/uL
- ABSOLUTE MONOCYTE [4]: 55.67 CELLS/uL
- ABSOLUTE SEGMENTED NEUTROPHIL [4]: 1134 CELLS/uL
- BASOPHIL [4]: 0%
- EOSINOPHIL [4]: 0.33%
- ERYTHROCYTE COUNT [4]: 5.9 x10E6/uL
- HEMATOCRIT [4]: 35.17%
- HEMOGLOBIN [4]: 14.23 G/DL
- LEUKOCYTE COUNT [4]: 17.03 x10E3/uL
- LYMPHOCYTE [4]: 92.67%
- MEAN CORPUSCULAR HEMOGLOBIN [4]: 24.17 pg
- MEAN CORPUSCULAR HEMOGLOBIN CONCENTRATION [4]: 40.47 G/DL
- MEAN CORPUSCULAR VOLUME [4]: 59.6 fL
- MONOCYTE [4]: 0.33%
- NEUTROPHIL [4]: 6.67%
- NUCLEATED RED BLOOD CELLS [4]: 0 /100WBC
- PLATELET COUNT [4]: 1586.67 x10E3/uL
- ALANINE AMINOTRANSFERASE [4]: 70.33 u/L
- ALBUMIN [4]: 4.23 G/DL
- ALKALINE PHOSPHATASE [4]: 327.33 u/L
- ASPARTATE AMINOTRANSFERASE [4]: 72.33 u/L
- BLOOD UREA NITROGEN [4]: 17.33 mg/dL
- CARBON DIOXIDE [4]: 27.33 mmol/L
- CHLORIDE [4]: 101.33 MEQ/L
- CHOLESTEROL [4]: 60.67 mg/dL
- CREATINE PHOSPHOKINASE [4]: 189.67 u/L
- CREATININE [4]: 0.21 mg/dL
- GLUCOSE [4]: 158.33 mg/dL
- LACTATE DEHYDROGENASE [4]: 134.33 u/L
- LIPASE [4]: 10.33 u/L
- PHOSPHORUS [4]: 11.07 mg/dL
- POTASSIUM [4]: 6.24 MEQ/L
- SODIUM [4]: 145.57 MEQ/L
- TOTAL BILIRUBIN [4]: 0.2 mg/dL
- TOTAL PROTEIN [4]: 6.17 G/DL
- URIC ACID [4]: 2 mg/dL
